Experimental data taken from ChEMBL document CHEMBL5346859, “Dual-target Janus kinase (JAK) inhibitors: Comprehensive review on the JAK-based strategies for treating solid or hematological malignancies and immune-related diseases” (Eur J Med Chem, 2022).
Values belong to the molecule of their own block, whether it stands above or below them.

How the values were obtained:
[1] = target: T1, Tyrosine-protein kinase JAK2 (Homo sapiens, UniProt O60674); test: Inhibition of recombinant human JAK2 (808 to end residues) using biotinylated TK substrate in presence of [33P]ATP
T1 sequence (O60674 whole entry): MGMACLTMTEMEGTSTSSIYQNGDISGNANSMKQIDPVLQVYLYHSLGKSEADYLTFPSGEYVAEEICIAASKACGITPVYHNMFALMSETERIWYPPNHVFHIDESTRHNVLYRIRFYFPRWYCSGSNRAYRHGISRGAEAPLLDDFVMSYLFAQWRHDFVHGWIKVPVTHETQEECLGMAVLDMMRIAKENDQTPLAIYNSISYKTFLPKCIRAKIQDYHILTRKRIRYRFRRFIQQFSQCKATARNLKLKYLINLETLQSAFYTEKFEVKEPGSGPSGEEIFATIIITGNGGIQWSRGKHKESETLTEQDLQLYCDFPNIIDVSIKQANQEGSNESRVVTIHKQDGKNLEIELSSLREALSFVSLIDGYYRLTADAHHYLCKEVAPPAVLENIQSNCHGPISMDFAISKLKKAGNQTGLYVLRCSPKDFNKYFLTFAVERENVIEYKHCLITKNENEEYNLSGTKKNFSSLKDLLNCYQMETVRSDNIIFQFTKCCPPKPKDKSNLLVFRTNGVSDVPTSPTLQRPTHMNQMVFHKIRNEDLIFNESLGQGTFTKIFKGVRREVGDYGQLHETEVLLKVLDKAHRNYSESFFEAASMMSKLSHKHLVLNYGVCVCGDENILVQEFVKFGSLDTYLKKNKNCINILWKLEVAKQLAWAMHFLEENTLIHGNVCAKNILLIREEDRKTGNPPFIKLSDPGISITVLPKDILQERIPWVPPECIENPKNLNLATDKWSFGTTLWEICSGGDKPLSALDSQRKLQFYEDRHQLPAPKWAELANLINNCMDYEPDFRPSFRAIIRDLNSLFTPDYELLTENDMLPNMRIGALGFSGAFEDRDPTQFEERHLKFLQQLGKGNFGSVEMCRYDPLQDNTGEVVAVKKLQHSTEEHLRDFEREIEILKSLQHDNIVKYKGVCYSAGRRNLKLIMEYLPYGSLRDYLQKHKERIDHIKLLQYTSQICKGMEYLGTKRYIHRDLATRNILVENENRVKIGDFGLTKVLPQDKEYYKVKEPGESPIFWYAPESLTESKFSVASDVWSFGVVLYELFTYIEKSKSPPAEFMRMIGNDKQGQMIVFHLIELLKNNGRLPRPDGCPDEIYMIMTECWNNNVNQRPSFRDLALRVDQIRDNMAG

[2] = target: Tyrosine-protein kinase ITK/TSK (Homo sapiens, UniProt Q08881); test: Inhibition of ITK (unknown origin)
[3] = Inhibition of JAK/STAT signaling pathway in human CD14 positive monocytes assessed as inhibition of GM-CSF stimulated STAT5 phosphorylation at Y694 residue preincubated for 1 hr followed by GM-CSF stimulation and measured after 15 mins by flow cytometry analysis; type: cell-based
[4] = target: Mitogen-activated protein kinase kinase kinase 9 (Homo sapiens, UniProt P80192); test: Inhibition of MLK1 (unknown origin)
[5] = target: Mitogen-activated protein kinase kinase kinase kinase 2 (Homo sapiens, UniProt Q12851); test: Inhibition of GCK (unknown origin)
[6] = Cytotoxicity against human CLL cells assessed inhibition of cell growth incubated for 72 hrs by propidium iodide staining based flow cytometry analysis; type: functional
[7] = Inhibition of JAK/STAT signaling pathway in human CD4+ve Th cells assessed as inhibition of IL-2 stimulated STAT5 phosphorylation at Y694 residue preincubated for 1 hr followed by IL-2 stimulation and measured after 15 mins by flow cytometry analysis; type: cell-based
[8] = target: Ribosomal protein S6 kinase alpha-3 (Homo sapiens, UniProt P51812); test: Inhibition of RSK2 (unknown origin)
[9] = target: Vascular endothelial growth factor receptor 3 (Homo sapiens, UniProt P35916); test: Inhibition of FLT4 (unknown origin)
[10] = target: Macrophage colony-stimulating factor 1 receptor (Homo sapiens, UniProt P07333); test: Inhibition of FMS (unknown origin)
Chain of Macrophage colony-stimulating factor 1 receptor (P07333 whole entry): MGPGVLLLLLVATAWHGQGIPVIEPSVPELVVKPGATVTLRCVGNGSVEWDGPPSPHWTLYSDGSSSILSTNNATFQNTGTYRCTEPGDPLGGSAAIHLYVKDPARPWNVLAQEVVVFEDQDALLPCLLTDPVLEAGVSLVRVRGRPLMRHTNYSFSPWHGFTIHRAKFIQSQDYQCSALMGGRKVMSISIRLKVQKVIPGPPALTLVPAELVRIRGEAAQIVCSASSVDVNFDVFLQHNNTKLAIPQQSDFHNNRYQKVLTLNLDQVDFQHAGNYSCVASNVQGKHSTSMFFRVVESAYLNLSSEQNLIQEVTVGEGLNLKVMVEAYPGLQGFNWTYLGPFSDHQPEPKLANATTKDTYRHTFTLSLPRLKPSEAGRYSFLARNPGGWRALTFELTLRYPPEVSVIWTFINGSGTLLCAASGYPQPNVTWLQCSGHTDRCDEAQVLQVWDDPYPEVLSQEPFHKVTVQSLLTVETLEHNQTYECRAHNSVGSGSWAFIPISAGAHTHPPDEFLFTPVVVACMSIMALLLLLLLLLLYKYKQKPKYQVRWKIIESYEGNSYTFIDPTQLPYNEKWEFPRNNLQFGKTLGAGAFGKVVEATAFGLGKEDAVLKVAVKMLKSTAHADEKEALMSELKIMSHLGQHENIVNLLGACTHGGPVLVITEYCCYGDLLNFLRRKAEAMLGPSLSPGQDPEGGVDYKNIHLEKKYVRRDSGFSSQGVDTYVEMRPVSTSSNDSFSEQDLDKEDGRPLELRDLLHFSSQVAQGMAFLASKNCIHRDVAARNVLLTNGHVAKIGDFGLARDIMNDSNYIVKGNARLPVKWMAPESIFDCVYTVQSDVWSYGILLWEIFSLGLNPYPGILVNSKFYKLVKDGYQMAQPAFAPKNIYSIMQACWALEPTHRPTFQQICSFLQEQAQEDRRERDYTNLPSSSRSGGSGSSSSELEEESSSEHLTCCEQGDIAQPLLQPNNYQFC

[11] = target: Serine/threonine-protein kinase MARK1 (Homo sapiens, UniProt Q9P0L2); test: Inhibition of MARK1 (unknown origin)
[12] = Inhibition of JAK/STAT signaling pathway in human CD4+ve Th cells assessed as inhibition of IL-4 stimulated STAT6 phosphorylation at Y641 residue preincubated for 1 hr followed by IL-4 stimulation and measured after 15 mins by flow cytometry analysis; type: cell-based
[13] = Inhibition of JAK/STAT signaling pathway in human CD14 positive monocytes assessed as inhibition of IL-6 stimulated STAT3 phosphorylation at Y705 residue preincubated for 1 hr followed by IL-6 stimulation and measured after 15 mins by flow cytometry analysis; type: cell-based
[14] = Inhibition of JAK/STAT signaling pathway in human CD14 positive monocytes assessed as inhibition of IL-4 stimulated STAT6 phosphorylation at Y641 residue preincubated for 1 hr followed by IL-4 stimulation and measured after 15 mins by flow cytometry analysis; type: cell-based
[15] = target: T2, Receptor-type tyrosine-protein kinase FLT3 (Homo sapiens, UniProt P36888)
T2 sequence (P36888 whole entry): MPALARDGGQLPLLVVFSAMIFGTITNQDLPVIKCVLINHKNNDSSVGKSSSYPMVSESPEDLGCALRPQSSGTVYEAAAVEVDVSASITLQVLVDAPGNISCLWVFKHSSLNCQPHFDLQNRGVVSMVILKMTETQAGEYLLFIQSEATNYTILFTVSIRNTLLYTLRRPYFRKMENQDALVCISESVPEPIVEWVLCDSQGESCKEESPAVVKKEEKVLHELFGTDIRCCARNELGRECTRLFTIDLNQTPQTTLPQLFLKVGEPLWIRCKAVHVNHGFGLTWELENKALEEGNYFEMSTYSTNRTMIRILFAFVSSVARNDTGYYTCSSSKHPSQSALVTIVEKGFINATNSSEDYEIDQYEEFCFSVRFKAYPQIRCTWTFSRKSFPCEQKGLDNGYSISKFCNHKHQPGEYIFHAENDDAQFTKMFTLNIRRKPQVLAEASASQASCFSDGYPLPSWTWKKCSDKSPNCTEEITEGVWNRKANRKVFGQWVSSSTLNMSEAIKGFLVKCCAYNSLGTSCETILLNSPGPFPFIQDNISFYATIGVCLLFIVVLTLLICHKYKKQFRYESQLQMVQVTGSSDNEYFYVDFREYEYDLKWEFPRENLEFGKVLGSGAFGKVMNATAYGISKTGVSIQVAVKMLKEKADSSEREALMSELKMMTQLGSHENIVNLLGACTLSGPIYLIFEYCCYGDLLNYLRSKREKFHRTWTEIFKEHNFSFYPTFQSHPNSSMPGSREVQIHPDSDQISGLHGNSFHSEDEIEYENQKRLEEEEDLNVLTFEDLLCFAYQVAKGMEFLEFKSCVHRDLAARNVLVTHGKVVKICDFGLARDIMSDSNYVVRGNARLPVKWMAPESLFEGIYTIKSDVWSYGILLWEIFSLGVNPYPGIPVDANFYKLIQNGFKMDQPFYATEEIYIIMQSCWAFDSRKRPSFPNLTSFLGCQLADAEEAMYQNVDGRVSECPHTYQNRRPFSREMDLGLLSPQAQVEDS

[16] = Inhibition of JAK/STAT signaling pathway in human CD19 positive B cells assessed as inhibition of IL-4 stimulated STAT6 phosphorylation at Y641 residue preincubated for 1 hr followed by IL-4 stimulation and measured after 15 mins by flow cytometry analysis; type: cell-based; conditions: CD19 positive B cell
[17] = Inhibition of JAK/STAT signaling pathway in human CD8-positive T cells assessed as inhibition of IL-2 stimulated STAT5 phosphorylation at Y694 residue preincubated for 1 hr followed by IL-2 stimulation and measured after 15 mins by flow cytometry analysis; type: cell-based; conditions: CD8-positive T cell
[18] = target: Serine/threonine-protein kinase MARK2 (Homo sapiens, UniProt Q7KZI7); test: Inhibition of PAR1B-a (unknown origin)
[19] = target: Ribosomal protein S6 kinase alpha-6 (Homo sapiens, UniProt Q9UK32); test: Inhibition of RSK4 (unknown origin)
[20] = target: Proto-oncogene tyrosine-protein kinase receptor Ret (Homo sapiens, UniProt P07949); test: Inhibition of RET (unknown origin)
[21] = Inhibition of JAK/STAT signaling pathway in human CD8-positive T cells assessed as inhibition of IL-4 stimulated STAT6 phosphorylation at Y641 residue preincubated for 1 hr followed by IL-4 stimulation and measured after 15 mins by flow cytometry analysis; type: cell-based; conditions: CD8-positive T cell
[22] = target: Serine/threonine-protein kinase 3 (Homo sapiens, UniProt Q13188); test: Inhibition of MST2 (unknown origin)
[23] = target: Serine/threonine-protein kinase Chk1 (Homo sapiens, UniProt O14757); test: Inhibition of CHK1 (unknown origin)
Chain of Serine/threonine-protein kinase Chk1 (O14757 whole entry): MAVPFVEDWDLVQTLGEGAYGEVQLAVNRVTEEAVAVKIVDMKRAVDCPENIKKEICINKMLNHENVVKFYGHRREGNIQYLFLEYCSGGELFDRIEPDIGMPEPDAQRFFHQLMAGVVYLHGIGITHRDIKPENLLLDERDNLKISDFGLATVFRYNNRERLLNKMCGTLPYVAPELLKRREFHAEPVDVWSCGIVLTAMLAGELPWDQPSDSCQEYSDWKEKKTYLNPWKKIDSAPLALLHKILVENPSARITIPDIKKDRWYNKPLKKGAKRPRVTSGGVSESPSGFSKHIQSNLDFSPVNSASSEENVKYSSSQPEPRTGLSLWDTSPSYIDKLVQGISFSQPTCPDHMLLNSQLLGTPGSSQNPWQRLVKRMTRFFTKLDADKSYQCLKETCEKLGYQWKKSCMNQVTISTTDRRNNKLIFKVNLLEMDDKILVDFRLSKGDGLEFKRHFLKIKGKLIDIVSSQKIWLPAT

[24] = target: Non-receptor tyrosine-protein kinase TYK2 (Homo sapiens, UniProt P29597); test: Inhibition of TYK2 (unknown origin) by flow cytometry analysis
Chain of Non-receptor tyrosine-protein kinase TYK2 (P29597 whole entry): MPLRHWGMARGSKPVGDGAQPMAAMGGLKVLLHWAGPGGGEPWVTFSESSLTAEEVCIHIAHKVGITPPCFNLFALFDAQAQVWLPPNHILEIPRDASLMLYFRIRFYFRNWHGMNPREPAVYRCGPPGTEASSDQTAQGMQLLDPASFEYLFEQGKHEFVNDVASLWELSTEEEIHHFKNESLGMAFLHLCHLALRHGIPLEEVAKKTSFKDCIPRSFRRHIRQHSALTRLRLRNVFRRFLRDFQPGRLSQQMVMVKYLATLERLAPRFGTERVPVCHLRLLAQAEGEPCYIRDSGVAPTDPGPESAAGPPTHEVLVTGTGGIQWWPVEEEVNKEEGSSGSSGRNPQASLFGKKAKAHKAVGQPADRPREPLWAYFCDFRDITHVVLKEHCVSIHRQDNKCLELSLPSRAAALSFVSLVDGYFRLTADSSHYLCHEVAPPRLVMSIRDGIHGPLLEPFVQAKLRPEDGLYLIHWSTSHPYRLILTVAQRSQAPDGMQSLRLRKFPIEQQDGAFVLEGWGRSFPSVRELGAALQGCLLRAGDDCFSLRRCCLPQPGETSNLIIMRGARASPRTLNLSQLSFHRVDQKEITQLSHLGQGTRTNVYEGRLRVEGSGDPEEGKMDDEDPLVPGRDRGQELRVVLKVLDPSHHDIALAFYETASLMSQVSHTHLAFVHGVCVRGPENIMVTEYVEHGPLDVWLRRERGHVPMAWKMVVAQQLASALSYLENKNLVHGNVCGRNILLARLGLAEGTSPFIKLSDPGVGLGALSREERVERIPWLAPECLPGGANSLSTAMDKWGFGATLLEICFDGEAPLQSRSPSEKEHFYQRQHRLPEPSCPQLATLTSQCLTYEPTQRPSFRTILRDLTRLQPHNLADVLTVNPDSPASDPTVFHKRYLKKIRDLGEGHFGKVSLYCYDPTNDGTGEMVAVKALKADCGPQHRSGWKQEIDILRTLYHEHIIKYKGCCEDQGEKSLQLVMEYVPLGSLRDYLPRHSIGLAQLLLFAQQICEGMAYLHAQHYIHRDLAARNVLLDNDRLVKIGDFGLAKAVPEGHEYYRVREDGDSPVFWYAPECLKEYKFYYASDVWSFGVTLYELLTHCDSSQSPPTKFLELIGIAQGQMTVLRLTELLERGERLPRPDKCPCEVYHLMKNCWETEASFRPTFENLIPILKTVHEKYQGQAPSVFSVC

[25] = target: Tyrosine-protein kinase JAK1 (Homo sapiens, UniProt P23458); test: Inhibition of JAK1 (unknown origin) by flow cytometry analysis
[26] = target: Tyrosine-protein kinase SYK (Homo sapiens, UniProt P43405); test: Inhibition of SYK (unknown origin) by flow cytometry analysis
[27] = target: T1, Tyrosine-protein kinase JAK2; test: Inhibition of JAK2 (unknown origin) by flow cytometry analysis
[28] = target: Tyrosine-protein kinase JAK3 (Homo sapiens, UniProt P52333); test: Inhibition of JAK3 (unknown origin) by flow cytometry analysis
Chain of Tyrosine-protein kinase JAK3 (P52333 whole entry): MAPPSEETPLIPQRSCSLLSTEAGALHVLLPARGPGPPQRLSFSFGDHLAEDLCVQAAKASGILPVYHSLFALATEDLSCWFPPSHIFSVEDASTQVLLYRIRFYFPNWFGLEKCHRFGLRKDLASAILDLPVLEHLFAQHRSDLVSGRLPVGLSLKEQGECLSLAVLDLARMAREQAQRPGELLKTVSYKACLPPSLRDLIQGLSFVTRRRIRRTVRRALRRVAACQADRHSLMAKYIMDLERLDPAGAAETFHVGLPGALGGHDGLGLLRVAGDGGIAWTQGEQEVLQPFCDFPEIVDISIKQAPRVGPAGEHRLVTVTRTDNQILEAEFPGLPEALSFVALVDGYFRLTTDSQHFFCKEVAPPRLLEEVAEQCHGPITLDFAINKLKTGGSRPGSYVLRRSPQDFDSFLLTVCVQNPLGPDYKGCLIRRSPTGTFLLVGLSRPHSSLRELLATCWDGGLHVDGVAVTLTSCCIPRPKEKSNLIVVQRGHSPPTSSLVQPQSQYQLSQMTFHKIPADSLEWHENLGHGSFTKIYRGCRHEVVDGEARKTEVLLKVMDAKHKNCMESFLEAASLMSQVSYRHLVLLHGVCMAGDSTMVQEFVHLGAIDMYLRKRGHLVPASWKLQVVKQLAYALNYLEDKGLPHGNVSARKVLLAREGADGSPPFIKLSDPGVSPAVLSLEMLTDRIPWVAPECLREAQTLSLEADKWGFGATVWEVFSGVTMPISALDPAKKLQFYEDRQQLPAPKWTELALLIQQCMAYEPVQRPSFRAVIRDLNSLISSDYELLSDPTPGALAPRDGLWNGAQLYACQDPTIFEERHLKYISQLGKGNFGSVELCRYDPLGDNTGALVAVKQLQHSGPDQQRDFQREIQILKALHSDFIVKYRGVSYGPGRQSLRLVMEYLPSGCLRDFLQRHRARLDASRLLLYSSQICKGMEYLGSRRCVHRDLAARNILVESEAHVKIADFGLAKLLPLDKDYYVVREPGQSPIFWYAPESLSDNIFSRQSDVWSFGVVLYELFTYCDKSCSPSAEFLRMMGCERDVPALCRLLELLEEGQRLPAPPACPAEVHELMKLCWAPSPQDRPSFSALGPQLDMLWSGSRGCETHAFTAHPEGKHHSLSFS

BaF3 [29] = test: Antitumor activity against mouse BaF3 cells harboring JAK2 V617F mutant implanted in BALB/c mouse model assessed as normalization rate of liver weight at 150 mg/kg, po qd administered from day 4 post infection and measured after 14 days relative to control; type: functional; conditions: time 10 day
BaF3 [30] = test: Antitumor activity against mouse BaF3 cells harboring JAK2 V617F mutant implanted in BALB/c mouse model assessed as normalization rate of spleen weight at 150 mg/kg, po qd administered from day 4 post infection and measured after 14 days relative to control; type: functional; conditions: time 10 day
MOLM-13 = test: Antitumor activity against human MOLM-13 cells xenografted mouse model assessed as tumor growth inhibition at 150 mg/kg administered for 7 days relative to control; type: functional; conditions: MOLM-13, 168 h, time 7 day, read-out: TGI
[31] = target: Tyrosine-protein kinase Tec (Homo sapiens, UniProt P42680); test: Inhibition of TEC (unknown origin) in presence of ATP
MV4-11 = test: Antitumor activity against human MV4-11 cells harboring FLT3 […] mutant xenografted acute myeloid leukemia BALB/c mouse model assessed as tumor growth inhibition at 40 mg/kg, po qd administered daily for 21 days relative to control; type: functional; conditions: MV4-11, 504 h, time 21 day, read-out: TGI

Structure (SMILES): C[C@H]1CC(C(=O)CC#N)[C@]12CCN(c1ncnc3[nH]ccc13)C2 (stereo partly drawn)
IC50 [1]: 2.6 nM

Structure (SMILES): CCS(=O)(=O)N1CCN(c2ccc(Nc3ncc(C(N)=O)c(NC4CC4)n3)cc2)CC1 [CERDULATINIB]
IC50 [2]: 4 nM
IC50 [3]: > 4000 nM
IC50 [4]: 4 nM
IC50 [5]: 4 nM
IC50 [6]: 370 nM
IC50 [7]: < 1000 nM
IC50 [8]: 4 nM
IC50 [9]: 4 nM
IC50 [10]: 4 nM
IC50 [11]: 4 nM
IC50 [12]: < 1000 nM
IC50 [13]: < 1000 nM
IC50 [14]: < 1000 nM
IC50 [15]: 4 nM
IC50 [16]: < 1000 nM
IC50 [17]: < 1000 nM
IC50 [18]: 4 nM
IC50 [19]: 4 nM
IC50 [20]: 4 nM
IC50 [21]: < 1000 nM
IC50 [22]: 4 nM
IC50 [23]: 4 nM

Structure (SMILES): C1=N/C2=N/c3ccc(OCCN4CCCC4)c(c3)COC/C=C/COCc3cccc(c3)C(=C1)N2 [PACRITINIB]
Activity (BaF3 [29]): 99%
Activity (BaF3 [30]): 42%
inhibition in vivo at 150 mg/kg (MOLM-13): 83%

Structure (SMILES): CN1C/C=C/CCOc2cccc(c2)-c2ccnc(n2)Nc2cccc(c2)C1 [ZOTIRACICLIB]
inhibition in vivo at 40 mg/kg (MV4-11): 113%

Further lines, results first:

IC50 [24]: 8 nM
IC50 [25]: 46 nM
IC50 [26]: 5 nM
IC50 [27]: 4 nM
IC50 [28]: 11 nM
Structure (SMILES): N#CCC1CCN(c2nc(Nc3ccc(N4CCC(O)CC4)cc3)c3c(=O)[nH]ncc3n2)CC1 [GUSACITINIB]

IC50 [31]: 155 nM
Structure (SMILES): C=CC(=O)N1C[C@H](Nc2ncnc3[nH]ccc23)CC[C@@H]1C [RITLECITINIB]
